Data as given in patent publication US20160143910A1, “METHODS OF TREATING CANCER AND PREVENTING CANCER DRUG RESISTANCE” (GENENTECH, INC., priority 2013, published 2016).

How the values were obtained:
SW480 cells = experiment: DTP model of CRC cell line SW480 with 5-fluorouracil and SN-38; format: cell-based
Description: A model for resistance to standard-of-care chemotherapy for colorectal cancer (CRC) was developed by treating CRC cell line SW480 with a combination of 5-fluorouracil and the irinotecan active metabolite SN-38 in a ratio of their relative IC50 values (33 μM 5-FU and 6 ηM SN-38) continuously for 16 days, followed by drug withdrawal. The cells progressively die during this treatment period. The remaining DTP cells constitute approximately 8% of the initial cell population and appear large and non-dividing. After drug withdrawal, cells continue to die for several more days, but then re-initiate proliferation and expand to form DTEP colonies by about 2 weeks in the absence of drugs.

PC9 cells [1] = experiment: Drug tolerant persister (DTP) assay, PC9 with Tarceva (erlotinib); format: cell-based, human; details: stained 30 days after
Description: […] Viable cells remaining attached on the dish at the end of the third round of relevant drug treatment were considered to be DTPs, and were collected for analysis.
(§1) The structures of CPI-382 and CPI-383 are provided below.

Colo829 = experiment: Cell viability assay (cell titer Glo), Colo829; format: cell-based; details: Homo sapiens, COLO-829, 96 h; Colo829, 4 days of incubation, 8 doses
Description: (§2) One goal was to identify a cell line that would be sensitive to vemurafenib and amenable to DTP formation. For this, a set of 18 melanoma cell lines were tested by standard cell viability assay using cell titer Glo readout after 4 days of incubation with 8 different doses of vemurafenib. The results identified 3 melanoma cell lines (A375, Colo829 and HT144) with GI50's below 600 nM. All 3 of these cell lines were b raf mutant. After experiments with all these cell lines, Colo-829 was selected as the preferred cell line for DTP establishment.
(§3) 1.1 Identifying melanoma cell lines sensitive to Vemurafenib • Day 0: 1000 cells/well were plated in 100 μl total volume in a 96 well flat bottom plate. • Day 1: The cells were treated with vemurafenib. The highest concentration in the assay was 20 μM and was diluted 3 fold down with the lowest concentration being 9 nM. • Day 5: 100 μl of cell titer glo was added to each well and the plates read on Envision. The data was plotted using graphpad prism. 1.2 DTP establishment in melanoma cell lines • Day 0: Cells (4.5×10^6 cells/P150 dishes) were plated, 4 plates/cell line. • Day 2: All the cell lines were 60-80% confluent. […] The cells in these plates were counted and ⅛th the numbers were replated in 2 new P150 dishes. […] The cells were counted and the percentage of cells remaining on the Vemurafenib treated dish vs the control dish were identified. […]

A375 = experiment: Cell viability assay (cell titer Glo), A375; format: cell-based; details: Homo sapiens, A-375, 96 h; A375, 4 days of incubation, 8 doses
Description: as §2, §3

HT144 = experiment: Cell viability assay (cell titer Glo), HT144; format: cell-based; details: Homo sapiens, HT-144, 96 h; HT144, 4 days of incubation, 8 doses
Description: as §2, §3

H441 cells = experiment: Drug tolerant persister (DTP) assay, H441; format: cell-based; details: in combination with the recited cancer therapy agent
Description: Specifically for carboplatin and paclitaxel DTPs, Cells were plated and grown to 60-70% confluency then treated with Carboplatin (5.38 uM) and Paclitaxel (1.25 uM) for 5 cycles of 24 hours on 48 hours off drug. DTPs were collected and analyzed 1 week after the final dose of chemotherapy.
as §1

HCC1954 = experiment: Drug tolerant persister (DTP) assay, HCC1954; format: cell-based; details: HCC1954 (breast cancer); in combination with the recited cancer therapy agent
Description: (§4) Drug-sensitive cells were treated with relevant drug as described herein at concentrations exceeding 100 times the established IC50 values, for three rounds, with each treatment lasting 72 hours. Viable cells remaining attached on the dish at the end of the third round of relevant drug treatment were considered to be DTPs, and were collected for analysis.
as §1

H3K4me3 [2] = experiment: H3K4me3 MSD ELISA in SKBR3; format: cell-based; details: SKBR3 (breast cancer)
Description: (§5) Cells were rinsed with PBS and MSD Buffer AT (10 mM HEPES, pH 7.9, 5 mM MgCl2, 0.25M sucrose, Benzonase (1:10000), 1% Triton X-100 supplemented with fresh 1× Protease Inhibitor cocktail and 1 mM PMSF/AEBSF) was added. Cells were lysed for 30 minutes and then 10 uL 5M NaCl was added and allowed to lyse on ice for another 15 minutes. Lysates were rinse with 150 uL ice-cold NO Salt NO detergent buffer (20 mM Tris pH 7.5, 1 mM EDTA, 1 mM EGTA, supplemented with fresh 1× Protease Inhibitor cocktail and 1 mM PMSF).
(§6) MSD plates (Catalog #L15XA-3) were then coated with Capture Antibody Anti-histone (Millipore Catalog # MAB3422) for H3K4me3: 2 ug/mL final concentration and/or plates testing for H3: 1 ug/mL final concentration. MSD plates were then blocked with 5% Blocker A (MSD Catalog #R93AA-2). Lysates to MSD plates were subsequently transferred, sealed and incubated with shaking at RT for 2:30 hours and then incubated with detection antibody in 1% Blocker A in TBST for 30 min (anti-Histone H3 (#4499 from Cell Signaling) at 0.125 ug/mL and/or anti-K4Me3 (#9751 from Cell Signaling) at 1 ug/mL). Sulfo-tag rabbit antibody (MSD Catalog# R32AB-1) in 1% Blocker A in TBST was added and incubated for 1 h at RT. […] 1× Read Buffer (MSD Catalog #R92TD-3) was added and read on MSD SECTOR® Imager 2400. Data was analyzed data using MACRO template provided using samples treated with DMSO as 0% or Min. […]

PC9 cells [3] = experiment: Cell number with KDM5 antagonist alone, PC9; format: cell-based, human; details: after 96 hours in drug, concentrations below 50 uM
Description: (§7) 3×10^4 cells were plated in each well of a 12-well cluster dish. 24 hours after plating, media was removed and replaced with media containing drugs. Fresh media was replaced every 2 days until untreated cells reached confluence. Media was then removed, cells were washed with Phosphate Buffered Saline (PBS), and then fixed for 15 min with 4% formaldehyde in PBS. Cells were then washed with PBS and stained with the fluorescent nucleic acid stain, Syto60 (1 nM in PBS; Molecular Probes) for 15 min. Dye was removed, cell monolayers were washed with PBS, and fluorescence quantitation was carried out at 700 nm with an Odyssey Infrared Imager (Li-Cor Biosciences).

H3K4me3 [4] = experiment: H3K4me3 MSD ELISA in H596; format: cell-based; details: H596 (lung epithelial adenosquamous carcinoma)
Description: as §5, §6

H3K4me3 [5] = experiment: H3K4me3 MSD ELISA in PC9; format: cell-based, human; details: PC9 (NSCLC)
Description: as §5, §6

PC9 cells [6] = experiment: Gamma irradiation of PC9 cells after KDM5 inhibitor pretreatment; format: cell-based, human
Description: For Gamma irradiation the cells were treated for 5 days with inhibitors replated at 500,000 cells with the inhibitor. After cell attachment (approximately 8 hours), the cells were irradiated, and cells were counted 5 days after irradiation.

SKBR3 [7] = experiment: Drug tolerant persister (DTP) assay, SKBR3; format: cell-based; details: in combination with the recited cancer therapy agent
Description: as §4, §1

H3K4me3 [8] = experiment: H3K4me3 MSD ELISA in H441; format: cell-based; details: H441 (NSCLC)
Description: as §5, §6

SKBR3 [9] = experiment: Cell number with KDM5 antagonist alone, SKBR3; format: cell-based; details: after 96 hours in drug, concentrations below 25 uM
Description: as §7

[10] = nuc-RED PC9, various concentrations for 5 days prior to 1 uM Tarceva (erlotinib)

In the case of `Nc1ncn([C@@H]2O[C@H](CO)[C@@H](O)[C@H]2O)c(=O)n1` [5-azacytidine], the DTP survival (SW480 cells; 0.2 μM) is reported as “does not affect DTP survival”.

In the case of `CC(/C=C/C(=O)NO)=C\[C@@H](C)C(=O)c1ccc(N(C)C)cc1` [Trichostatin A], the DTP survival (SW480 cells; 20 ηM) is reported as “does not affect DTP survival”.

For `O=c1[nH]c(Oc2cnn(Cc3ccccc3)c2)nc2ncccc12` [CPI-383], the “development of drug tolerant persisters” value (PC9 cells [1]; [10]) was “no significant effect”.

For `CCCS(=O)(=O)Nc1ccc(F)c(C(=O)c2c[nH]c3ncc(-c4ccc(Cl)cc4)cc23)c1F` [vemurafenib, Vemurafenib], the GI50 (Colo829) was < 600 nM, the GI50 (A375) was < 600 nM and the GI50 (HT144) was < 600 nM.

For CPI-455, the “development of drug tolerant persisters” value (H441 cells) was “capable of inhibiting the development of drug tolerant persisters”, the “development of drug tolerant persisters” value (PC9 cells [1]; PC9, in combination with cancer therapy agent, 25 uM for 5 days prior to 1uM Tarceva) was “capable of inhibiting the development of drug tolerant persisters” and the “development of drug tolerant persisters” value (HCC1954) was “capable of inhibiting the development of drug tolerant persisters”. For the same compound, the H3K4me3 (H3K4me3 [2]) was “increase H3K4me3”, the cell number (PC9 cells [3]) was “did not substantially affect cell number” and the H3K4me3 (H3K4me3 [4]) was “increase H3K4me3”. The H3K4me3 (H3K4me3 [5]) was “increase H3K4me3”, the “number of cells following γ-irradiation” value (PC9 cells [6]; PC9, pretreatment for 5 days, compared to inactive controls) was “decreases the number of cells following γ-irradiation” and the “development of drug tolerant persisters” value (PC9 cells [6]; in combination with radiation therapy) was “capable of inhibiting the development of drug tolerant persisters”. For the same compound, the “development of drug tolerant persisters” value (SKBR3 [7]) was “capable of inhibiting the development of drug tolerant persisters”, the H3K4me3 (H3K4me3 [8]) was “increase H3K4me3” and the cell number (SKBR3 [9]) was “did not substantially affect cell number”.

With `O=c1[nH]c(Oc2cnn(Cc3ccccc3)c2)nc2cnccc12` [CPI-382] the “development of drug tolerant persisters” value (PC9 cells [1]; [10]) was “capable of reducing the development of drug tolerant persisters”.
